Values belong to the compound of their own block, whether it stands above or below them.
Legend:
BSA [1] = molecular target: T1, BSA (Bos taurus, UniProt P02769); assay: Screening of excipients at pH 6.2 for capacity to deter BSA from forming a gel; format: physicochemical, Bovine; conditions: for Results, 65° C., 60 minutes: BSA 175 mg/ml
T1 construct: BSA stock solution (35%, in water, 0.85% sodium chloride, from Sigma); purchased Sigma / Sigma Aldrich
Method: Various excipients were tested for their capacity to deter BSA from forming a gel, using sucrose as a reference, in malonic acid buffer (25 mM), incubated at 65° C. for 60 minutes. The excipients used were sucrose, 4-formylbenzene-1,3-disulfonic acid, 4-formylbenzoic acid, phenylglyoxylic acid, glyoxylic acid. (Tables 2 through 6).

[2] = molecular target: T2, Myoglobin (Horse Skeleton) (Equus caballus, UniProt P68082); assay: Inhibition of myoglobin thermal aggregation at 65° C.; format: physicochemical
T2 construct: Myoglobin (Horse Skeleton, Sigma) was made into a stock solution (10 mg/ml); purchased Sigma; host or cells: horse skeletal muscle ('Horse Skeleton' [sic])
T2 sequence (P68082 whole entry): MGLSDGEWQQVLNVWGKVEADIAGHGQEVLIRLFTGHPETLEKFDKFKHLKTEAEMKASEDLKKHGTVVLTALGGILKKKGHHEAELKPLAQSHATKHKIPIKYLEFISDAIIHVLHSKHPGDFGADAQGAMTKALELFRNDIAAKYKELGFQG
Method: Myoglobin (Horse Skeleton, Sigma) was made into a stock solution (10 mg/ml) in sodium bicarbonate buffer (0.1 M, pH 9.0). This solution (0.5 ml) was then mixed with various excipient stock solutions (0.10 ml) to provide a series of test samples with the same final myoglobin concentration and varying excipient concentrations ([X]). Then the samples in sealed test tubes were inserted into wells of heating block that was pre-set at 65° C., and the incubation was continued over a period of time, to observe the formation of fibrillation precipitates (PPT).

BSA [3] = molecular target: T1, BSA; assay: Inhibition of BSA thermal aggregation (gel/solid formation) at 65° C. over 60 min, phosphate buffer; format: physicochemical, Bovine
Method: […] All samples were inserted into wells of heating block that was preset at 65° C.
Ten microliter of the above clear solutions were each diluted with 1.0 ml of phosphate buffer (pH 7.4), and a reference sample of BSA solutions of 2.5 mg/ml was prepared in the same buffer. Small aliquot of 0.10 ml of all the five diluted samples were analyzed on SEC HPLC (TSK gel G 3000 SW, 5 mm×300 mm), eluted with 50 mM sodium phosphate buffer (pH 7.4) containing 0.85% sodium chloride at flow rate of 1.0 ml/min monitored at 280 nm.

[4] = molecular target: T3, zinc-free recombinant human insulin, NovoRapid, LisPro (Homo sapiens, UniProt P01308); assay: Inhibition of insulin fibrillation by glyoxylic acid, rotator at room temperature; format: physicochemical; conditions: 20 mM glyoxylic acid, phosphate buffer pH 7.0, room temperature, rotator 12 rotations per minute
T3 construct: A solution of zinc-free recombinant human insulin was prepared in phosphate buffer
T3 sequence (P01308 25-54 limits assumed): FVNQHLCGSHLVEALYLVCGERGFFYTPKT
T3 sequence (P01308 90-110 limits assumed): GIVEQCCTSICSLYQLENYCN
Method: (§1) A solution of zinc-free recombinant human insulin was prepared in phosphate buffer (50 mM, pH 7.0, no sodium chloride) at concentration of 1.0 mg/ml, containing 0 and 20 mM glyoxylic acid. Commercial NovoRapid (Novo Nordisk, 100 IU/ml) was diluted with phosphate buffer to 25 IU/ml, with and without glyoxylic acid (0 or 20 mM). Humalog 25 (100 IU/ml, Eli Lilly) was centrifuged to collect the supernatant, and the LisPro concentration was assumed to be 25 IU/ml. Then two LisPro samples were made with and without glyoxylic acid (0 or 20 mM) with assumed final LisPro concentration of 20 IU/ml. Each of the samples (1.0 ml) was transferred into a capped 10 ml test tube, and loaded onto a rotator that was set at 12 rotations per minute at room temperature.

Humulin R (zinc insulin) = molecular target: T4, Humulin R (zinc insulin) (Homo sapiens, UniProt P01308); assay: Inhibition of zinc insulin fibrillation by glyoxylic acid, rotator at room temperature; format: physicochemical; conditions: containing glyoxylic acid, conditions as in Example 11, rotator
T4 construct: purchased
T4 sequence (P01308 25-54 limits assumed): as the sequence (P01308 25-54 limits assumed) above
Method: as §1, with “temperature. […] Conditions were as in Example 11 above, but using commercial Humulin R (100 IU/ml).” for “temperature.”

BSA [5] = molecular target: T1, BSA; assay: Reduction of aggregation of BSA induced by t-butanol, SEC HPLC; format: physicochemical, Bovine; conditions: BSA precipitated with t-butanol, re-dissolved in PBS
Method: To three separate test tubes containing 0.050 ml of BSA (35%, 0.85% sodium chloride) and 0.050 ml of phosphate buffer (50 mM, pH 7.4), were respectively added 0.010 ml of water, 0.010 mll of 2-formylbenzenesulfonic acid sodium salt (75 mg/ml, pH 8), and 0.010 ml of pyridoxal phosphate (100 mg/ml, pH 7.4). To each of the three tubes were then added 0.50 ml of PEG solution (75%, molecular weight 3400) followed by centrifugation to give some precipitate. The three supernatants were collected to have BSA at saturated concentrations, and to them were separately added 0.50 ml of t-butanol to have more BSA precipitates after centrifugation. The crops of precipitates from t-butanol were washed with t-butanol twice (0.75 ml each) and re-dissolved in PBS buffer (50 mM sodium phosphate, pH 7.4, 0.85% sodium chloride) for SEC HPLC analysis. Plain BSA produced about 75% of aggregates, the sample with 2-formylbenzenesulfonic acid produced about 60% of aggregates, the sample with pyridoxal phosphate produced less than 50% of aggregates.

[6] = molecular target: T5, Bovine Serum Albumin (BSA) (Bos taurus, UniProt P02769); assay: Inhibition of thermal aggregation of BSA, SEC HPLC; format: physicochemical; conditions: 65° C., BSA 1.75 mg/ml, excipient 11.25 mg/ml, pH 7.4
T5 construct: BSA stock solution (35%, in water, 0.85% sodium chloride, from Sigma); purchased Sigma / Sigma Aldrich
T5 sequence (P02769 25-607): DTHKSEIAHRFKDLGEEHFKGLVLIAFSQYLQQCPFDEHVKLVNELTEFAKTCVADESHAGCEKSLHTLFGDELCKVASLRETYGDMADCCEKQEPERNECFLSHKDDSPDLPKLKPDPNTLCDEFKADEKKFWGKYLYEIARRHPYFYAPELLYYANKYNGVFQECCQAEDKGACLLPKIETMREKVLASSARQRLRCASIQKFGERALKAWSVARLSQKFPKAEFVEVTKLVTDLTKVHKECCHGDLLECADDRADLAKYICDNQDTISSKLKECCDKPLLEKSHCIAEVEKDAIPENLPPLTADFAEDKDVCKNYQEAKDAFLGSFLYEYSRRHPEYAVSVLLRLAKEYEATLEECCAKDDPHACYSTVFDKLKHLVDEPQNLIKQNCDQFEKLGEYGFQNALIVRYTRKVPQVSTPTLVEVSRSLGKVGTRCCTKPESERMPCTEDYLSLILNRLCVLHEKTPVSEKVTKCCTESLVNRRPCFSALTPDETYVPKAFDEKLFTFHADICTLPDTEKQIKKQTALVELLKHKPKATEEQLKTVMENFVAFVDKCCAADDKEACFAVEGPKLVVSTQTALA
Method: A 0.050 ml of BSA stock solution (35%, in water, 0.85% sodium chloride, from Sigma) was diluted into 0.450 ml of sodium phosphate buffer (50 mM, pH 7.4, 0.85% sodium chloride) to give a BSA solution at concentration of 35 mg/ml. An excipient, 2-formylbenzenesulfonic acid, sodium salt (Aldrich, 75%), was made into a solution in water (HPLC grade) at concentration of 75 mg/ml, and its pH was adjusted to 8 using dilute hydrochloric acid.
An aliquot of 0.050 ml of the above stock BSA solution (35 mg/ml) was diluted into PBS buffer (pH 7.4, 0.80 ml), and 0.15 ml of the excipient solution was added to it to make a BSA concentration of 1.75 mg/ml, and the excipient of 11.25 mg/ml. A separate sample was prepared without the addition of the excipient. Both samples in capped glass tubes are incubated at 65° C. […] […] SEC column: TSK gel G3000 SW, 7.5×300 mm, Tosoh Biosciences, part number 05789. Mobile phase: 50 mM phosphate buffer, pH 7.4, 0.85% sodium chloride. Flow rate: 1.0 ml/min. Detection: 280 nm Instrument: BuckChrom BLC-20.

[7] = malonate 25 mM pH 6.2, excipient 9.4 mg/ml
[8] = malonate 25 mM pH 6.2, excipient 18.8 mg/ml
[9] = malonate 25 mM pH 6.2, excipient 37.5 mg/ml
[10] = pH 9.0, 5 weeks, one cell for all [X] of the excipient
[11] = pH 9.0, 1 days, one cell for all [X] of the excipient
[12] = pH 9.0, 2 days, one cell for all [X] of the excipient
[13] = pH 9.0, 4 days, one cell for all [X] of the excipient

T1 sequence (P02769 25-607): as above

SMILES: O=C(O)C(=O)c1ccccc1 [Phenylglyoxylic Acid]
Results, 65° C., 60 minutes (BSA [1]; [7]): Clear | Results, 65° C., 60 minutes (BSA [1]; [8]): Clear | Results, 65° C., 60 minutes (BSA [1]; [9]): Clear | Formation of fibrillation precipitates (PPT) [2, 10]: Precipitate | Formation of fibrillation precipitates (PPT) [2, 11]: Precipitate (PPT) | Formation of fibrillation precipitates (PPT) [2, 12]: Precipitate | Formation of fibrillation precipitates (PPT) [2, 13]: Precipitate

SMILES: O=Cc1ccc(S(=O)(=O)O)cc1S(=O)(=O)O [4-Formyl-1,3-benzenedisulfonic Acid, 4-Formyl-1,3-benzenedisulfonic acid]
Results, 65° C., 60 minutes (BSA [1]; malonate 25 mM pH 6.2, excipient 7.1 mg/ml): Clear | Results, 65° C., 60 minutes (BSA [1]; malonate 25 mM pH 6.2, excipient 14.4 mg/ml): Clear | Results, 65° C., 60 minutes (BSA [1]; malonate 25 mM pH 6.2, excipient 28.8 mg/ml): Clear | Results, 65° C., 60 minutes (BSA [3]; BSA 262.5 mg/ml, phosphate 25 mM pH 7.4, excipient 12.5 mg/ml): Clear | Results, 65° C., 60 minutes (BSA [3]; BSA 262.5 mg/ml, phosphate 25 mM pH 7.4, excipient 12.5 mg/ml, listed as 4-Formyl-1,3-benzenedisulfonic acid): prevents BSA (262 mg/ml) from turning into gellified solid | Results, 65° C., 60 minutes (BSA [3]; BSA 262.5 mg/ml, phosphate 25 mM pH 7.4, excipient 25 mg/ml): Clear | Results, 65° C., 60 minutes (BSA [3]; BSA 262.5 mg/ml, phosphate 25 mM pH 7.4, excipient 50 mg/ml): Clear | Results, 65° C., 60 minutes (BSA [3]; repeated at pH 6.8, excipient 12.5 mg/ml): remained as clear solution | Rank in deterring myoglobin from fibrillation (summary in words) ([2]; pH 9.0): best among this group | Formation of fibrillation precipitates (PPT) [2, 10]: Clear | Formation of fibrillation precipitates (PPT) [2, 11]: Clear | Formation of fibrillation precipitates (PPT) [2, 12]: Clear | Formation of fibrillation precipitates (PPT) [2, 13]: Clear

SMILES: OC[C@H]1O[C@@](CO)(O[C@H]2O[C@H](CO)[C@@H](O)[C@H](O)[C@H]2O)[C@@H](O)[C@@H]1O [Sucrose, sucrose, reference compound]
Results, 65° C., 60 minutes (BSA [1]; malonate 25 mM pH 6.2, excipient 75 mg/ml): Pale Gel | Results, 65° C., 60 minutes (BSA [1]; malonate 25 mM pH 6.2, excipient 125 mg/ml): Pale Gel | Results, 65° C., 60 minutes (BSA [1]; malonate 25 mM pH 6.2, excipient 175 mg/ml): Gel | Power to prevent BSA from turning into gel or solid (summary in words) (BSA [1]; pH 6.2, 65° C., 60 minutes, all concentrations tested): does not have strong power to prevent BSA from turning into gel or solid

SMILES: O=Cc1ccccc1S(=O)(=O)[O-].[Na+] [2-formylbenzenesulfonic acid, 2-formylbenzenesulfonic acid, sodium salt]
Aggregates produced (BSA [5]): about 60% | BSA aggregation on SEC HPLC ([6]; 40 minutes): no significant change of BSA | BSA aggregation on SEC HPLC ([6]; 60 minutes): aggregates started to show up in an insignificant amount

Further lines, with some results ahead:

Results, 65° C., 60 minutes (BSA [1]; [7]): Clear | Results, 65° C., 60 minutes (BSA [1]; [8]): Clear | Results, 65° C., 60 minutes (BSA [1]; [9]): Clear
SMILES: O=Cc1ccc(C(=O)O)cc1 [4-Formylbenzoic acid]

Formation of fibrillation precipitates (PPT) [2, 10]: Precipitate | Formation of fibrillation precipitates (PPT) [2, 11]: Precipitate | Formation of fibrillation precipitates (PPT) [2, 12]: Precipitate | Formation of fibrillation precipitates (PPT) [2, 13]: Precipitate
SMILES: O=Cc1cc(C(=O)O)ccc1O [3-Formyl-4-hydroxylbenzoic Acid]

Results, 65° C., 60 minutes (BSA [1]; malonate 25 mM pH 6.2, excipient 5.8 mg/ml): Clear | Results, 65° C., 60 minutes (BSA [1]; malonate 25 mM pH 6.2, excipient 11.5 mg/ml): Clear | Results, 65° C., 60 minutes (BSA [1]; malonate 25 mM pH 6.2, excipient 23 mg/ml): Clear | Formation of fibrillation precipitates (PPT) [2, 10]: Precipitate | Formation of fibrillation precipitates (PPT) ([2]; pH 9.0, 1 days, higher part of [X] 16.7/41.7/83.3 mM (cell span not shown)): Clear | Formation of fibrillation precipitates (PPT) ([2]; pH 9.0, 1 days, lower part of [X] 16.7/41.7/83.3 mM (cell span not shown)): PPT | Formation of fibrillation precipitates (PPT) ([2]; pH 9.0, 2 days, higher part of [X] 16.7/41.7/83.3 mM (cell span not shown)): Clear | Formation of fibrillation precipitates (PPT) ([2]; pH 9.0, 2 days, lower part of [X] 16.7/41.7/83.3 mM (cell span not shown)): PPT | Formation of fibrillation precipitates (PPT) [2, 13]: Precipitate
SMILES: O=CC(=O)O [Glyoxylic Acid]
Appearance of insulin solution (fibrillation) [4]: stayed in clear solutions beyond four weeks | Appearance of Humulin R solution (fibrillation) (Humulin R (zinc insulin)): remained clear six days before turning cloudy

— patent US8642532B2, “Excipients for protein stabilization” (priority 2007, dated 2014)
